Read-outs that look alike come from different tables or passages of the source.
What was measured:
MCF7 = experiment: NCI-60 anticancer screen (SRB; single dose and five doses); conditions: Homo sapiens
SK-OV-3 = experiment: as above; conditions: Homo sapiens
SNB-19 = experiment: cells; conditions: Homo sapiens
SW-620 = experiment: NCI-60 anticancer screen (SRB; single dose and five doses); conditions: Homo sapiens
MDA-MB-468 = experiment: as above; type: cell-based, human
Outline: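 NCI panel of about 60 human tumor cell lines treated with compound at a single concentration (10μM) for 48 h. Growth measured by SRB protein staining and expressed as percent growth of treated versus untreated control cells.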

[1] = system: 60 human tumor cell lines panel; experiment: NCI-60 anticancer screen, whole panel (means and ranges over the cell lines); type: cell-based; conditions: for activity at 10 µM: Homo sapiens, 48 h, dose of 10 μM
SF-539 = experiment: NCI-60 anticancer screen (SRB; single dose and five doses); conditions: Homo sapiens
SK-MEL-5 = experiment: as above; conditions: Homo sapiens
HS 578T = experiment: as above; conditions: Homo sapiens
NCI-H522 = experiment: as above; conditions: Homo sapiens
HL-60(TB) = experiment: as above; conditions: Homo sapiens
UACC-62 = experiment: as above; conditions: Homo sapiens
UACC-257 = experiment: as above; conditions: Homo sapiens
MDA-MB-231/ATCC = experiment: as above; conditions: Homo sapiens
SF-268 = experiment: as above; conditions: Homo sapiens
CAKI-1 = experiment: as above; conditions: Homo sapiens
U251 = experiment: as above; conditions: Homo sapiens
OVCAR-8 = experiment: as above; conditions: Homo sapiens
RXF 393 = experiment: as above; conditions: Homo sapiens
SK-MEL-2 = experiment: as above; conditions: Homo sapiens
MALME-3M = experiment: as above; conditions: Homo sapiens
IGROV1 = experiment: as above; conditions: Homo sapiens
M14 = experiment: as above; conditions: Homo sapiens
MOLT-4 = experiment: as above; conditions: Homo sapiens
UO-31 = experiment: as above; conditions: Homo sapiens
[2] = five doses, mean graph midpoint over all cell lines
[3] = 48 h, read-out: Growth Percentage

## Cc1[nH]c(=S)sc1C(=O)/C=C/c1ccc(F)cc1 [2c, (E)-3-(4-Fluorophenyl)-1-(4-Methyl-2-Thioxo-2,3-Dihydrothiazol-5-yl)Prop-2-En-1-One]
MCF7; MCF7
  GI50: 2.65 µM
MCF7; MCF7, 48 h, read-out: Growth Percentage
  activity at 10 µM: 9.48%
MCF7; MCF7, read-out: LC50
  CC50: 37 µM
MCF7; MCF7, read-out: TGI
  IC (TGI): 11.4 µM
SK-OV-3; SK-OV-3
  GI50: 11 µM
SK-OV-3; SK-OV-3, read-out: LC50
  CC50: 61.8 µM
SK-OV-3; SK-OV-3, read-out: TGI
  IC (TGI): 26.1 µM
SNB-19; SNB-19
  GI50: 4.87 µM
SNB-19; SNB-19, 48 h, read-out: Growth Percentage
  activity at 10 µM: 33.7%
SNB-19; SNB-19, read-out: LC50
  CC50: 43.1 µM
SNB-19; SNB-19, read-out: TGI
  IC (TGI): 17.8 µM
SW-620; SW-620
  GI50: 3.37 µM
SW-620; SW-620, 48 h, read-out: Growth Percentage
  activity at 10 µM: 13.8%
SW-620; SW-620, read-out: LC50
  CC50: 49.3 µM
SW-620; SW-620, read-out: TGI
  IC (TGI): 15 µM
MDA-MB-468; Homo sapiens, 48 h, MDA-MB-468, dose of 10 μM, read-out: Growth Percentage
  activity at 10 µM: -4.51%
MDA-MB-468; Homo sapiens, MDA-MB-468, Breast Cancer, five dose
  GI50: 1.93 µM
MDA-MB-468; Homo sapiens, MDA-MB-468, Breast Cancer, five dose, read-out: LC50 (the source's name)
  CC50: 25.3 µM
MDA-MB-468; MDA-MB-468, Breast Cancer, five dose
  TGI: 6.46 µM
[1]; mean over the tested cell lines, read-out: Mean growth percentage
  activity at 10 µM: 36.7%
[1]; range over the cell lines, read-out: growth percentages against most of the tested cells (lowest to highest)
  activity at 10 µM: -13.6 to 119%
[1]; [2]
  Log10GI50 _MID: -5.23 Molar
  Log10LC50 _MID: -4.26 Molar
  Log10TGI _MID: -4.65 Molar
SF-539; SF-539
  GI50: 2.94 µM
SF-539; SF-539, 48 h, read-out: Growth Percentage
  activity at 10 µM: -4.61%
SF-539; SF-539, read-out: TGI
  IC (TGI): 10.8 µM
SK-MEL-5; SK-MEL-5
  GI50: 6.77 µM
SK-MEL-5; SK-MEL-5, 48 h, read-out: Growth Percentage
  activity at 10 µM: 42.6%
SK-MEL-5; SK-MEL-5, read-out: LC50
  CC50: 44.2 µM
SK-MEL-5; SK-MEL-5, read-out: TGI
  IC (TGI): 19.5 µM
HS 578T
  GI50: 13.2 µM
HS 578T; [3]
  activity at 10 µM: 95.3%
HS 578T; read-out: LC50
  CC50: > 100 µM
HS 578T; read-out: TGI
  IC (TGI): 40.2 µM
NCI-H522; NCI-H522
  GI50: 8.63 µM
NCI-H522; NCI-H522, 48 h, read-out: Growth Percentage
  activity at 10 µM: 44.2%
NCI-H522; NCI-H522, read-out: LC50
  CC50: 46.8 µM
NCI-H522; NCI-H522, read-out: TGI
  IC (TGI): 21.2 µM
HL-60(TB); HL-60
  GI50: 2.83 µM
HL-60(TB); HL-60, 48 h, read-out: Growth Percentage
  activity at 10 µM: 13%
HL-60(TB); HL-60, read-out: LC50
  CC50: > 100 µM
HL-60(TB); HL-60, read-out: TGI
  IC (TGI): 32.2 µM
UACC-62; UACC-62
  GI50: 5.3 µM
UACC-62; UACC-62, 48 h, read-out: Growth Percentage
  activity at 10 µM: 47.3%
UACC-62; UACC-62, read-out: TGI
  IC (TGI): 19.3 µM
UACC-257; UACC-257
  GI50: 12.6 µM
UACC-257; UACC-257, 48 h, read-out: Growth Percentage
  activity at 10 µM: 64.1%
UACC-257; UACC-257, read-out: LC50
  CC50: 56.6 µM
UACC-257; UACC-257, read-out: TGI
  IC (TGI): 26.7 µM
MDA-MB-231/ATCC; MDA-MB-231
  GI50: 15.7 µM
MDA-MB-231/ATCC; MDA-MB-231, 48 h, read-out: Growth Percentage
  activity at 10 µM: 29.7%
MDA-MB-231/ATCC; MDA-MB-231, read-out: LC50
  CC50: 66.1 µM
MDA-MB-231/ATCC; MDA-MB-231, read-out: TGI
  IC (TGI): 32.2 µM
SF-268; SF-268
  GI50: 13 µM
SF-268; SF-268, 48 h, read-out: Growth Percentage
  activity at 10 µM: 58.6%
SF-268; SF-268, read-out: LC50
  CC50: 63.1 µM
SF-268; SF-268, read-out: TGI
  IC (TGI): 28.7 µM
CAKI-1; CAKI-1
  GI50: 6.89 µM
CAKI-1; CAKI-1, 48 h, read-out: Growth Percentage
  activity at 10 µM: 31.6%
CAKI-1; CAKI-1, read-out: LC50
  CC50: 45.4 µM
CAKI-1; CAKI-1, read-out: TGI
  IC (TGI): 20.2 µM
U251; U-251
  GI50: 3.63 µM
U251; U-251, 48 h, read-out: Growth Percentage
  activity at 10 µM: 14.1%
U251; U-251, read-out: LC50
  CC50: 41.9 µM
U251; U-251, read-out: TGI
  IC (TGI): 15.1 µM
OVCAR-8; OVCAR-8
  GI50: 3.99 µM
OVCAR-8; OVCAR-8, 48 h, read-out: Growth Percentage
  activity at 10 µM: -13.6%
OVCAR-8; OVCAR-8, read-out: LC50
  CC50: 50.9 µM
OVCAR-8; OVCAR-8, read-out: TGI
  IC (TGI): 16.2 µM
RXF 393; RXF 393
  GI50: 3.02 µM
RXF 393; RXF 393, 48 h, read-out: Growth Percentage
  activity at 10 µM: 23.2%
RXF 393; RXF 393, read-out: LC50
  CC50: 37.2 µM
RXF 393; RXF 393, read-out: TGI
  IC (TGI): 13 µM
SK-MEL-2; SK-MEL-2
  GI50: 11.6 µM
SK-MEL-2; SK-MEL-2, 48 h, read-out: Growth Percentage
  activity at 10 µM: 56.6%
SK-MEL-2; SK-MEL-2, read-out: LC50
  CC50: 50.1 µM
SK-MEL-2; SK-MEL-2, read-out: TGI
  IC (TGI): 24.1 µM
MALME-3M
  GI50: 12.4 µM
MALME-3M; [3]
  activity at 10 µM: 85.8%
MALME-3M; read-out: LC50
  CC50: 60.9 µM
MALME-3M; read-out: TGI
  IC (TGI): 27.5 µM
IGROV1; IGROV-1
  GI50: 4.93 µM
IGROV1; IGROV-1, 48 h, read-out: Growth Percentage
  activity at 10 µM: 51.2%
IGROV1; IGROV-1, read-out: LC50
  CC50: 62.3 µM
IGROV1; IGROV-1, read-out: TGI
  IC (TGI): 19.7 µM
M14; M14
  GI50: 6.97 µM
M14; M14, 48 h, read-out: Growth Percentage
  activity at 10 µM: 49.6%
M14; M14, read-out: TGI
  IC (TGI): 22.2 µM
MOLT-4; MOLT-4
  GI50: 16.7 µM
MOLT-4; MOLT-4, 48 h, read-out: Growth Percentage
  activity at 10 µM: 58.7%
MOLT-4; MOLT-4, read-out: LC50
  CC50: > 100 µM
MOLT-4; MOLT-4, read-out: TGI
  IC (TGI): 64.3 µM
UO-31; UO-31
  GI50: 2.88 µM
UO-31; UO-31, 48 h, read-out: Growth Percentage
  activity at 10 µM: 28.1%
UO-31; UO-31, read-out: TGI
  IC (TGI): 15.7 µM
